Laboratory results from patent US9670462B2, “Bioactive surface for hepatocyte-based applications” (priority 2006, dated 2017).

System: hepatocytes

Structure (SMILES): N=C(N)NCCC[C@H](NC(=O)CN)C(=O)NCC(=O)N[C@@H](CC(=O)O)C(=O)N[C@@H](CO)C(=O)O [GRGDS]
- effect on hepatocyte monolayer maintained on PET-Hybrid (soluble peptide 100 μM in culture medium): destabilized the hepatocyte monolayer
- toxicity to the hepatocytes (soluble peptide, treatment for 24 h): slight toxicity

Structure (SMILES): NCCCCCCOC1O[C@H](CO)[C@H](O)[C@H](O)[C@H]1O (stereo partly drawn) [galactose ligands, 1-O-(6′-aminohexyl)-D-galactopyranoside]
- morphological changes of 3D spheroids, pre-spheroid monolayer or 2D hepatocyte monolayer: did not induce any morphological changes
